Test [1] deals with Melatonin receptor. The class given is protein assay, Ovis aries.
For test [2], the target named is T1, Melatonin receptor (Homo sapiens) (UniProt P48039+P49286). The test can be described thus: Compound was evaluated for agonistic activity against cAMP production stimulated by forskolin; Potential stimulation. The class given is functional. The settings on record: Ovis aries; filed as agonist.
Test [3] has as its target T1, Melatonin receptor (Homo sapiens). The test can be described thus: Binding affinity against ovine pars tuberalis melatonin receptor using 2-[125I]- melatonin radioligand binding assay. The class given is protein assay. The settings on record: Ovis aries; target entry is the homologue from another species.

Seven compounds from ChEMBL document CHEMBL1128911 (Bioorg Med Chem Lett, 1996) can be followed below.

What is called Ki is the equilibrium dissociation constant of an inhibitor or competing ligand from its target. A higher Ki goes with weaker binding. In the case of `CC(=O)NCCc1cccc2ccc3c(c12)C=CCO3`, the Ki in test [1] amounted to 0.137 nM. That is a sub-nanomolar value.
With `CC(=O)NCCC1CCCc2cc3c(cc21)OCCO3` (stereo not given), the Activity result in test [2] was “Agonist”. In test [1], this compound yielded a Ki of 62.2 nM.
As for `CC(=O)NCCc1cccc2ccc3c(c12)CCCO3`, in test [1], the inhibition constant (Ki) is 0.216 nM.
In the case of `CC(=O)NCCC1CCCc2ccc3c(c21)CCCO3` (stereo not given), the Activity entry in test [2] was “Agonist”. In test [1], the Ki was found to be 6.17 nM.
Take `CC(=O)NCCc1cccc2ccc3c(c12)CC(C)O3` (stereo not given): in test [3], the KH came to 0.0069 pM and the KL came to 1.2 nM.
Take `CC(=O)NCCc1cccc2ccc3c(c12)C(O)CO3` (stereo not given): the Ki in test [1] worked out at 130 nM.
The compound `CC(=O)NCCc1cccc2ccc3c(c12)C(=O)CO3` returned a Ki in test [1] of 13.9 nM.
